According to paper PMC10653858 (mBio, 2023):

Assays:
LegAS4 = type: binding, L. pneumophila strain Philadelphia; conditions: pH 7.5
SET domain = type: binding, L. pneumophila; conditions: pH 8
LegAS4 enzymes = type: binding, L. pneumophila strain Philadelphia

| Compound | Peptide binding to wild-type LegAS4, in words (LegAS4) | SAM binding of the SET domain alone, in words (SET domain) | SAM binding of the different proteins, in words (LegAS4 enzymes) |
| --- | --- | --- | --- |
| ARTKQT-K(Biotin)-NH2 [H3 peptide (Ala1-Ala7)] | not binding the enzyme |  |  |
| C[S+](CC[C@H](N)C(=O)[O-])C[C@H]1O[C@@H](n2cnc3c(N)ncnc32)[C@H](O)[C@@H]1O (stereo partly drawn) [SAM] |  | greatly decreased SAM binding | same binding capacity to SAM |
